In assay [1] the target is 5-hydroxytryptamine 1D receptor (Bos taurus, UniProt Q8MI13).
For assay [2], the target named is 5-hydroxytryptamine receptor 1E (Homo sapiens, UniProt P28566).

Data on nine molecules can be found in BindingDB's records for doi:10.1111/j.1471-4159.1989.tb07357.x (Albany Medical College, 1989).

pKi: −log10 of the molar value.

The pKi is the negative decadic logarithm of the Ki, by convention in mol/L. Lower therefore signals a high Ki.

Sequence of 5-hydroxytryptamine 1D receptor (Q8MI13 whole entry): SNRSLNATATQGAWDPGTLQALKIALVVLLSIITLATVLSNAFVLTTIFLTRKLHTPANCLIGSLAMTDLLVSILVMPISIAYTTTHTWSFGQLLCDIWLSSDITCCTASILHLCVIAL
Sequence of 5-hydroxytryptamine receptor 1E (P28566 whole entry): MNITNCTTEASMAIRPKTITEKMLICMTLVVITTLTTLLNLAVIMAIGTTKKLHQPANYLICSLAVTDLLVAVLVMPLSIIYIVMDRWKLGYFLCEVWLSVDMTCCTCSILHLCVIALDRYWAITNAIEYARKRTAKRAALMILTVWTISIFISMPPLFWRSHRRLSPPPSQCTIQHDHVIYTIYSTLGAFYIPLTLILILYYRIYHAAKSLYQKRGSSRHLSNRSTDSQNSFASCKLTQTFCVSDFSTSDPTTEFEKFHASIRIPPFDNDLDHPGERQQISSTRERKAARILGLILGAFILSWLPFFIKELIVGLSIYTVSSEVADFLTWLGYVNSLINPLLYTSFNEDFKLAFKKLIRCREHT

Molecule `NCCc1c[nH]c2ccc(O)cc12` [[3H]-5-HT] gave a negative logarithm of the Ki (pKi) in assay [1] of 8.72. With `COc1cc(CC(C)N)c(OC)cc1Br` (stereo not drawn) [2-(4-Bromo-2,5-dimethoxy-phenyl)-1-methyl-ethylamine((-)-DOB)], the negative logarithm of the Ki (pKi) in assay [1] is 6.00; in assay [2], 6.25. As for `CN1C2CCC1CC(OC(=O)c1c[nH]c3ccccc13)C2` (stereo not given), the negative logarithm of the Ki (pKi) in assay [1] and in assay [2] was less than 5.00 in each case. As to `FC(F)(F)c1cccc(N2CCNCC2)c1` [TFMPP], the figures for the pKi in assay [1] and in assay [2] were 6.82 and 6.24, respectively.

Consider `NCCc1c[nH]c2ccc(C(N)=O)cc12` [[3H]-5-carboxamidotryptamine], for which the pKi in assay [2] was 6.04. As for `CC[C@@H](CO)NC(=O)[C@@H]1C=C2c3cccc4c3c(cn4C)C[C@H]2N(C)C1`, the negative logarithm of the Ki (pKi) in assay [1] is 8.06; in assay [2] it was 7.23.

In assay [2], `CN1C[C@H](C(=O)N[C@]2(C)O[C@@]3(O)[C@@H]4CCCN4C(=O)[C@H](Cc4ccccc4)N3C2=O)C=C2c3cccc4[nH]cc(c34)C[C@H]21` [12'-hydroxy-2'-methyl-5'alpha-(phenylmethyl)ergotaman-3',6',18-trione] had a pKi of 6.81. Consider `CCCN(CCC)C1CCc2cccc(O)c2C1` (stereo not given), for which the pKi in assay [1] is 6.70; in assay [2], 6.08. With `O=C(c1ccc(F)cc1)C1CCN(CCn2c(=O)[nH]c3ccccc3c2=O)CC1` [3-(2-{4-[(4-fluorophenyl)carbonyl]piperidin-1-yl}ethyl)-1,2,3,4-tetrahydroquinazoline-2,4-dione], the pKi in assay [1] was 5.49; in assay [2], less than 5.00.
